Measurements published in patent US20100255020A1, “METHOD FOR INDUCING CYTOTOXIC T-CELLS, CYTOTOXIC T-CELL INDUCERS, AND PHARMACEUTICAL COMPOSITIONS AND VACCINES EMPLOYING THEM” (NEC CORPORATION, priority 2007, published 2010).
Where no end group is shown, it is not given here.

Tests used:
[1] = tested on: IFN-γ-producing cells in peripheral blood mononuclear cells; assay: ELISPOT of patients' PBMCs before and after W10 peptide immunization; type: cell-based, human
Method: In order to compare the cytotoxicity of peripheral blood mononuclear cells between that before administration of 5×10̂8 cells of whole-cell pertussis vaccine and 3 mg of W10 peptide to that after administering it three times, peripheral blood mononuclear cells were cultured with the immunizing peptide under conditions described later, and the number of cells that produced IFN-γ in a peptide-dependent manner were counted. The cells used for the ELISPOT assay are also described later.
The results are shown in FIG. 6 (response of PBMC of patients having HLA-A*2402), FIG. 7 (response of patients having HLA-A*0201), and FIG. 8 (response of patients having HLA-A*0206). The abscissa denotes the peptide that was bound to antigen presenting cells (in the figures, referred to as APCs (antigen presenting cells)), and the ordinate denotes the number of INF-γ-producing cells per 1×10̂4 cells. The response of peripheral blood mononuclear cells one week after three-time immunizations is shown with closed bars, and the response of peripheral blood mononuclear cells collected immediately before immunization is shown with open bars. […]
Peripheral blood mononuclear cells (PBMC) were stimulated in vitro once a week for a total of three times and then, the number of cells that produced IFN-γ in response to the antigen peptide were counted. […]

[2] = target: HLA-A*2402 molecule (Homo sapiens, UniProt P04439, D101N/D140Y/D185E/E176V/E190D/F33S/G103R/G107R/I119L/I121M/I306V/K335N/L105A/L180Q/L300P/N151K/N90K/Q86E/Q94H/R106L/R138H/R89G/T104I/T345S/V100E/W191G/Y123F); assay: Peptide binding to HLA-A*2402 molecule on C1R-A24 cells (flow cytometry, Kd); details: HLA-A*2402, C1R-A24 cells; read-out: Binding assay data (−log Kd) (converted)
Method: The ability of a peptide to bind to an HLA-A*2402 molecule, which is a product of the HLA-A*2402 gene, was measured using C1R-A24 cells expressing the HLA-A*2402 molecule (cells generated by Professor Masafumi Takiguchi, Kumamoto University being supplied with permission by Associate Professor Masaki Yasukawa, Ehime University).
C1R-A24 cells were first exposed to acidic conditions at a pH of 3.3 for 30 seconds, thus dissociating and removing a β2m light chain, which is associated with HLA class I molecules in common, and an endogenous peptide originally bound to the HLA-A*2402 molecule. After neutralization, purified β2m was added to C1R-A24 cells, the obtained product was added to serial dilutions of a peptide, and incubated on ice for 4 hours. […]
Subsequently, the number of MHC-pep complexes per C1R-A24 cell (proportional to the intensity of fluorescence of the above-mentioned fluorescent antibody) was quantitatively measured using a FACScan fluorescence-activated flow cytometer (Becton Dickinson Biosciences). A dissociation constant Kd value between the HLA-A*2402 molecule and the peptide was calculated from the average intensity of fluorescence per cell by a method published in the literature (Udaka et al., Immunogenetics, 51, 816-828, 2000).

Sequence: ALLPAVPSL [W10]
- Number of W10-reactive IFN-γ-producing T-cells ([1]; patient KB07-006, after 1 mg W10 peptide for 3 weeks): increased
- Increase of cells producing IFN-γ in response to W10 peptide after immunization ([1]; patients with HLA-A*2402, HLA-A*0201 or HLA-A*0206, 3 mg W10 + Wc x3): often observed
- Kd [2]: 0.692 nM
